The numbers were not newly measured in patent publication US6174531A, “Methods of preparation of bioginkgo” (priority 1998, dated 2001), which cites them from elsewhere.

Data set [1] deals with PAF platelet membrane receptor. The following applies: in vitro, literature.
The conditions of data set [2]: humans, literature.
For data set [3] the following is noted: rats, literature.

SMILES strings stand for the structures. Where two headings read alike, the source gives them in different places.

On to `CC1C(=O)OC2C(O)C34C5OC(=O)C3(OC3OC(=O)C(O)C34C(C(C)(C)C)C5O)C12O` (stereo not drawn) [ginkgolide C], for which the “specificity of inhibition of PAF binding to its platelet receptors” value (from here on “specificity of inhibition of PAF binding”) in data set [1] is recorded as “highly specific”.

For the compound `CC1C(=O)OC2C(O)C34C5CC(C(C)(C)C)C36C(OC(=O)C6O)OC4(C(=O)O5)C12O` (stereo not drawn) [ginkgolide B], the “half-life compared with ginkgolide A” value in data set [2] and in data set [3] was “longer half-life” each time. The “specificity of inhibition of PAF binding” value in data set [1] was “highly specific”. Moreover, in data set [1] (read-out: IC50, inhibition of PAF binding to its platelet receptors), the concentration for half-maximal inhibition (IC50) (as a rule, the point on the concentration scale where inhibition reaches its midpoint) was roughly 100 nM.

Consider `C[C@@H]1C(=O)O[C@H]2C[C@@]34[C@H]5C[C@@H](C(C)(C)C)[C@]36[C@@H](OC(=O)[C@@H]6O)O[C@@]4(C(=O)O5)[C@]21O` [ginkgolide A], for which the “specificity of inhibition of PAF binding” value in data set [1] is recorded as “highly specific”.
